Earlier results as cited in patent publication US9024067B2, “Process for preparing carboxylic acid amides useful in the treatment of muscular disorders” (Canbex Therapeutics Limited, priority 2009, dated 2015).

Test system: spasticity in CREAE mice
Settings: initial studies (WO2005/080316)

In the case of `CC(CO)NC(=O)c1cccc(/C=C\CCCC(=O)N(C)C)c1` (stereo not shown) [VSN-16], the effect on spasticity is listed as “marked effect on spasticity”.
